Measurements taken from EPA's ToxValDB 9.5 (doi:10.2903/j.efsa.2007.117r).
In brackets after ≈: the same amount, converted by molar mass.

Columns and labels:
[1] = system: Tagia sp.; details: acute; duration: 14 days; mortality
[2] = system: Daphnia magna; details: chronic/long-term; duration: 21 days; reproduction
[3] = system: Bird; details: for LD50: oral, mortality
[4] = system: Canidae; details: subchronic; duration: 90 days; oral; Dog Other
[5] = system: Oryctolagus sp.; details: reproduction developmental; reproduction
[6] = system: Aphidius rhopalosiphi; details: chronic/long-term; mortality
[7] = system: Bibionidae; details: chronic/long-term; duration: 24 days; reproduction
[8] = system: Apis mellifera; details: acute; duration: 48 hours; oral; unspecified; mortality
[9] = system: Rattus norvegicus
[10] = system: Oncorhynchus mykiss

SMILES: NC1=C(Cl)C(=O)c2ccccc2C1=O [2-Amino-3-chloro-1,4-naphthoquinone]
- LC50 [1]: 125 mg/kg
- NOEC [2]: 0.0021 mg/L
- LD50 ([3]; acute, unspecified): > 2000 mg/kg-day
- NOAEL ([3]; chronic/long-term): 36.2 mg/kg-day
- LD50 ([3]; short-term, feed): 394 mg/kg-day
- NOAEL [4]: 3 mg/kg-day
- NOAEL [5]: 17.5 mg/kg-day
- LEL [6]: 3810 g/ha
- NOEC [7]: 0.063 mg/L
- LD50 [8]: > 28 µg/piece
- LD50 ([9]; acute, oral, mortality): 500 mg/kg-day
- NOAEL ([9]; chronic, duration: 2 years, organ weight): 0.21 mg/kg-day
- NOAEL ([9]; reproduction developmental, body weight): 5 mg/kg-day
- LC50 ([10]; acute, duration: 96 hours, mortality): 0.063 mg/L (≈ 0.303 µM)
- NOEC ([10]; chronic/long-term, duration: 21 days, behavior): 0.02 mg/L
